Reference: patent US10034896B2, “Compositions and methods for treatment of osteoporosis and other indications” (priority 2012, dated 2018)

Experiments:
[1] = system: capillary circulation of the skin; experiment: Laser Doppler study of creams in five human subjects, Example 7; assay type: in vivo; conditions: positive control formulation containing 0.1% methyl nicotinate
From the text: This example illustrates delivery of nitric oxide formulations to five human subjects, using procedures and formulations similar to those discussed in Example 5. Each person served as their own control for the testing. A Moor Instruments Laser Doppler was used to determine circulation. […] The formulations used produce positive, almost immediate results when applied to the skin which, in these studies, was manifested by vasodilatation of the cutaneous vascular system.
For each subject, the following creams were applied: a negative control formulation (containing no NO), 0.010 gram of a 10,000 ppm NO formulation, 0.020 gram of a 10,000 ppm NO formulation, and a positive control formulation containing 0.1% methyl nicotinate. The formulations were prepared using procedures similar to those discussed in Example 1.

[2] = system: micro-capillary blood flow to skin; experiment: Laser Doppler study in closed Hilltop chamber on forearm, Example 5; assay type: in vivo, human; conditions: applied to the skin at 1/10% in alcohol
From the text: The formulation used in these studies contained nitric oxide dispersed in a lipid matrix. […] Nitric oxide is a very rapid acting molecule, and these studies used a system that employed laser Doppler with a covered chamber. The formulation was placed into the chamber and then attached to the skin by an adhesive layer on the covering. This provided a stable measuring device as determined by multiple normal evaluations of the capillary blood flow without treatment of nitric oxide.
A known positive control, methyl nicotinate, was applied to the skin at a concentration of 1/10% in alcohol. […] The vascular dynamics are such that when the blood vessels dilate physical parameters follow Bernoulli's law. […] The laser Doppler device accurately measured these parameters.
In these studies, the participants were healthy females aged 30 to 55 years. They were in good health as determined by the medical history and were not taking any prescription medications. All study participants read and signed the informed consent statement prior to any study procedures being performed. […]
A Moor Instruments DRT4 Laser Doppler Blood Flow Monitor (Devon, England) was used in these studies. The laser Doppler technique measured blood flow in the microcapillaries of the skin that are close to the skin surface and the blood flow in underlying arterioles and venules that help to regulate skin temperature. […]

[3] = Nitric oxide gas bubbled through carrier, weight gain; assay type: physicochemical; conditions: NO gas bubbled 40 hr, 25 ° C.
Experimental: This example illustrates one technique for preparing a composition in accordance with one embodiment of the invention. An accurate amount of a carrier (HNC 167-62) (see below) was introduced into a system. The carrier weight used in these experiments was approximately 250 g and the vessel size was 500 ml. The vessel was equipped with a mechanical stirrer, gas inlet, and gas outlet and was previously purged with argon for about an hour. The temperature of the carrier was kept at about 25-30° C. NO gas regulated at 5 psi (1 psi is about 6,900 Pa) and was then introduced at a controlled rate of about 1 bubble/s with continuous stirring. […] After 6 hours, the weight of the carrier had increased by 0.15%, by 12 hours by 0.25%, and by 24 hours by 0.56%. These increases in weight were believed to be significant considering the relative small molecular weight of NO versus the carrier. […] The carrier also can solidify upon cooling if the carrier is initially a solid at lower temperature.
Each carrier was taken in a 500 mL three necked flask equipped with a mechanical stirrer, gas inlet and a gas outlet. The system was purged with argon for one hour at room temperature (25° C.). Then nitric oxide gas was bubbled into the system. Then, nitric oxide gas was bubbled through carrier for stipulated amount of time. The changes in weight and color were noted. […]

SMILES | vasodilatation (laser Doppler) [1] | laser Doppler response to positive control [2] | % Wt. gain [3] [%]
COC(=O)c1cccnc1 [methyl nicotinate] | vasodilatation was observed | rapid response typical of the vasodilator | –
OCCCO [1,3-Propanediol, 1,3-propanediol] | – | – | 0.09
